Test system: advanced solid tumours
Assay: Tumour response and PFS per RECIST v1.1, overall efficacy-evaluable population
Type: in vivo, human
Method: Pamiparib in plasma was measured using a validated liquid chromatography-tandem–mass spectrometry assay with a lower limit of quantification of 1.0 ng/mL. The collection schedule for blood samples used to assess the PK profile is presented in the Supplemental Appendix. Summary PK parameters, including area under the concentration-time curve from time 0 to 9 h (AUC0-9) or infinity (AUC0-inf), maximal plasma concentration (Cmax) and time to maximal plasma concentration (Tmax), were estimated. The pharmacodynamic (PD) activity of pamiparib was explored through the evaluation of poly(ADP-ribose [PAR]) formation in peripheral blood mononuclear cells (PBMCs) after pamiparib administration. The schedule for blood sample collection (PK and PBMCs) and additional assessment information for PAR levels in PBMCs and pharmacodynamic activity is presented in the Supplemental Appendix. Antitumor activity was assessed by radiographic imaging (computed tomography or magnetic resonance imaging) during screening, within 28 days of first pamiparib dose, every 6 weeks in the first 12 months and every 9 weeks thereafter.
Tumour response was evaluated by RECIST v1.1. For patients with ovarian cancer, tumour response was assessed per RECIST v1.1 and by Gynecologic Cancer Intergroup (GCIG) CA-125 criteria. Tumour response for patients with prostate cancer was assessed by Prostate Cancer Clinical Trials Working Group 2 (PCWG2) criteria. Objective response rate (ORR) was defined as the proportion of patients achieving a confirmed complete response (CR) or partial response (PR) on study treatment. Blood tumour antigens (e.g., carcinoembryonic antigen for colorectal cancer, CA-125 for ovarian cancer and prostate-specific antigen [PSA] for mCRPC) were assessed during screening, every 6 weeks after the first pamiparib dose in the first 12 months, and every 9 weeks thereafter.
The safety population comprised all patients in the dose-escalation and dose-expansion phases who received at least one dose of pamiparib (Supplementary Table S2). Patients in the safety analysis set for whom valid pamiparib PK parameters were estimated and for whom evaluable PD results were available represented the PK population and the PD population, respectively. The efficacy-evaluable population included patients in the safety analysis set who had at least one evaluable postbaseline tumour assessment or those who discontinued due to clinical disease progression or early death before tumour assessment could be performed. The EOC efficacy-evaluable population was a subset of the overall efficacy-evaluable population that included patients with EOC from both the dose-escalation and dose-expansion phases. Patients in the dose-expansion phase without measurable disease at baseline per RECIST v1.1 were excluded from the efficacy-evaluable population.
Descriptive statistics were used to summarise all study data (see Supplemental Appendix). Progression-free survival (PFS) and event-free rates were estimated using the Kaplan–Meier method along with the corresponding 95% CI. Pharmacokinetic parameters were derived using standard non-compartmental methods with Phoenix WinNonlin Version 6.4 or higher (Pharsight Corp., Mountain View, California).

[1] = BID efficacy-evaluable population (n = 77)
[2] = Total BID dosage group, overall efficacy-evaluable (n = 77)
[3] = dose escalation, 2.5 mg BID (n=4)
[4] = dose escalation, 5.0 mg BID (n=3)
[5] = dose escalation, 10 mg BID (n=3)
[6] = dose escalation, 20 mg BID (n=3)
[7] = dose escalation, 40 mg BID (n=6)
[8] = dose escalation, 60 mg BID (n=11)
[9] = dose escalation, 80 mg BID (n=9)
[10] = dose escalation, 120 mg BID (n=5)
[11] = dose escalation, Total BID (N=44)
[12] = overall efficacy-evaluable population (n=95)

C[C@]12CCCN1CC1=NNC(=O)c3cc(F)cc4[nH]c2c1c34 [pamiparib]
Median duration of response (BID dosage group): 14.9 months
Confirmed CRs [1]: 5.2%
Confirmed PRs [1]: 22.1%
Confirmed CRs (in words) (QD dosage group (n=18)): no confirmed CRs
Confirmed ORR (QD dosage group (n=18)): 11.1%
Confirmed PRs (QD dosage group (n=18)): 11.1%
Event-free rate, 1 year (Total (N=95)): 32.7 (21.73-44.18) % (95% CI)
Event-free rate, 2 years (Total (N=95)): 11.0 (4.13-21.80) % (95% CI)
PFS censored: New anticancer therapy received before event (Total (N=95)): 1 (1.1) n (%)
PFS censored: No disease progression or death (Total (N=95)): 27 (28.4) n (%)
PFS censored: No postbaseline assessment (Total (N=95)): 5 (5.3) n (%)
PFS censored: ≥2 consecutive missed assessments (Total (N=95)): 2 (2.1) n (%)
PFS events: Death (Total (N=95)): 10 (10.5) n (%)
PFS events: Disease progression (Total (N=95)): 50 (52.6) n (%)
PFS: Censored (Total (N=95)): 35 (36.8) n (%)
PFS: Events (Total (N=95)): 60 (63.2) n (%)
Progression-Free Survival, Median (Total (N=95)): 5.5 (4.14-8.31) months (95% CI)
Event-free rate, 1 year (Total BID Dosage Group (n=77)): 34.0 (21.72-46.58) % (95% CI)
Event-free rate, 2 years (Total BID Dosage Group (n=77)): 12.2 (4.52-24.01) % (95% CI)
PFS censored: New anticancer therapy received before event (Total BID Dosage Group (n=77)): 1 (1.3) n (%)
PFS censored: No disease progression or death (Total BID Dosage Group (n=77)): 20 (26.0) n (%)
PFS censored: No postbaseline assessment (Total BID Dosage Group (n=77)): 5 (6.5) n (%)
PFS censored: ≥2 consecutive missed assessments (Total BID Dosage Group (n=77)): 2 (2.6) n (%)
PFS events: Death (Total BID Dosage Group (n=77)): 7 (9.1) n (%)
PFS events: Disease progression (Total BID Dosage Group (n=77)): 42 (54.5) n (%)
PFS: Censored (Total BID Dosage Group (n=77)): 28 (36.4) n (%)
PFS: Events (Total BID Dosage Group (n=77)): 49 (63.6) n (%)
Progression-Free Survival, Median (Total BID Dosage Group (n=77)): 6.9 (4.14-9.89) months (95% CI)
Best overall response: Complete response [2]: 4 (5.2) n (%)
Best overall response: Not assessed [2]: 7 (9.1) n (%)
Best overall response: Not evaluable [2]: 1 (1.3) n (%)
Best overall response: Partial response [2]: 17 (22.1) n (%)
Best overall response: Progressive disease [2]: 11 (14.3) n (%)
Best overall response: Stable disease [2]: 37 (48.1) n (%)
Clinical benefit rate [2]: 39.0 (28.1–50.8) % (95% CI)
Disease control rate [2]: 75.3 (64.2–84.4) % (95% CI)
Objective response rate [2]: 27.3 (17.7–38.6) % (95% CI)
Event-free rate, 1 year (Total QD Dosage Group (n=18)): 30.1 (8.73-55.34) % (95% CI)
Event-free rate, 2 years (Total QD Dosage Group (n=18)): 0.0 (NE-NE) % (95% CI)
PFS censored: New anticancer therapy received before event (Total QD Dosage Group (n=18)): 0 (0) n (%)
PFS censored: No disease progression or death (Total QD Dosage Group (n=18)): 7 (38.9) n (%)
PFS censored: No postbaseline assessment (Total QD Dosage Group (n=18)): 0 (0) n (%)
PFS censored: ≥2 consecutive missed assessments (Total QD Dosage Group (n=18)): 0 (0) n (%)
PFS events: Death (Total QD Dosage Group (n=18)): 3 (16.7) n (%)
PFS events: Disease progression (Total QD Dosage Group (n=18)): 8 (44.4) n (%)
PFS: Censored (Total QD Dosage Group (n=18)): 7 (38.9) n (%)
PFS: Events (Total QD Dosage Group (n=18)): 11 (61.1) n (%)
Progression-Free Survival, Median (Total QD Dosage Group (n=18)): 4.9 (3.22-12.32) months (95% CI)
Best overall response: Complete response [3]: 0 (0.0) n (%)
Best overall response: Not assessed [3]: 2 (50.0) n (%)
Best overall response: Not evaluable [3]: 0 (0.0) n (%)
Best overall response: Partial response [3]: 1 (25.0) n (%)
Best overall response: Progressive disease [3]: 1 (25.0) n (%)
Best overall response: Stable disease [3]: 0 (0.0) n (%)
Clinical benefit rate [3]: 25.0 (0.63-80.59) % (95% CI)
Disease control rate [3]: 25.0 (0.63-80.59) % (95% CI)
Objective response rate [3]: 25.0 (0.63-80.59) % (95% CI)
Best overall response: Complete response [4]: 0 (0.0) n (%)
Best overall response: Not assessed [4]: 1 (33.3) n (%)
Best overall response: Not evaluable [4]: 0 (0.0) n (%)
Best overall response: Partial response [4]: 1 (33.3) n (%)
Best overall response: Progressive disease [4]: 0 (0.0) n (%)
Best overall response: Stable disease [4]: 1 (33.3) n (%)
Clinical benefit rate [4]: 33.3 (0.84-90.57) % (95% CI)
Objective response rate [4]: 33.3 (0.84-90.57) % (95% CI)
Best overall response: Complete response [5]: 0 (0.0) n (%)
Best overall response: Not assessed [5]: 0 (0.0) n (%)
Best overall response: Not evaluable [5]: 0 (0.0) n (%)
Best overall response: Partial response [5]: 0 (0.0) n (%)
Best overall response: Progressive disease [5]: 1 (33.3) n (%)
Best overall response: Stable disease [5]: 2 (66.7) n (%)
Clinical benefit rate [5]: 0.0 (0.00-70.76) % (95% CI)
Disease control rate [5]: 66.7 (9.43-99.16) % (95% CI)
Objective response rate [5]: 0.0 (0.00-70.76) % (95% CI)
Best overall response: Complete response [6]: 1 (33.3) n (%)
Best overall response: Not assessed [6]: 0 (0.0) n (%)
Best overall response: Not evaluable [6]: 0 (0.0) n (%)
Best overall response: Partial response [6]: 1 (33.3) n (%)
Best overall response: Progressive disease [6]: 1 (33.3) n (%)
Best overall response: Stable disease [6]: 0 (0.0) n (%)
Clinical benefit rate [6]: 66.7 (9.43-99.16) % (95% CI)
Disease control rate [6]: 66.7 (9.43-99.16) % (95% CI)
Objective response rate [6]: 66.7 (9.43-99.16) % (95% CI)
Best overall response: Complete response [7]: 0 (0.0) n (%)
Best overall response: Not assessed [7]: 0 (0.0) n (%)
Best overall response: Not evaluable [7]: 0 (0.0) n (%)
Best overall response: Partial response [7]: 2 (33.3) n (%)
Best overall response: Progressive disease [7]: 0 (0.0) n (%)
Best overall response: Stable disease [7]: 4 (66.7) n (%)
Clinical benefit rate [7]: 33.3 (4.33-77.72) % (95% CI)
Disease control rate [7]: 100.0 (54.07-100.00) % (95% CI)
Objective response rate [7]: 33.3 (4.33-77.72) % (95% CI)
Best overall response: Complete response [8]: 1 (9.1) n (%)
Best overall response: Not assessed [8]: 2 (18.2) n (%)
Best overall response: Not evaluable [8]: 0 (0.0) n (%)
Best overall response: Partial response [8]: 0 (0.0) n (%)
Best overall response: Progressive disease [8]: 3 (27.3) n (%)
Best overall response: Stable disease [8]: 5 (45.5) n (%)
Clinical benefit rate [8]: 18.2 (2.28-51.78) % (95% CI)
Disease control rate [8]: 54.5 (23.38-83.25) % (95% CI)
Objective response rate [8]: 9.1 (0.23-41.28) % (95% CI)
Best overall response: Complete response [9]: 1 (11.1) n (%)
Best overall response: Not assessed [9]: 1 (11.1) n (%)
Best overall response: Not evaluable [9]: 0 (0.0) n (%)
Best overall response: Partial response [9]: 1 (11.1) n (%)
Best overall response: Progressive disease [9]: 1 (11.1) n (%)
Best overall response: Stable disease [9]: 5 (55.6) n (%)
Clinical benefit rate [9]: 44.4 (13.70-78.80) % (95% CI)
Disease control rate [9]: 77.8 (39.99-97.19) % (95% CI)
Objective response rate [9]: 22.2 (2.81-60.01) % (95% CI)
Best overall response: Complete response [10]: 0 (0.0) n (%)
Best overall response: Not assessed [10]: 1 (20.0) n (%)
Best overall response: Not evaluable [10]: 1 (20.0) n (%)
Best overall response: Partial response [10]: 1 (20.0) n (%)
Best overall response: Progressive disease [10]: 1 (20.0) n (%)
Best overall response: Stable disease [10]: 1 (20.0) n (%)
Clinical benefit rate [10]: 20.0 (0.51-71.64) % (95% CI)
Disease control rate [10]: 40.0 (5.27-85.34) % (95% CI)
Objective response rate [10]: 20.0 (0.51-71.64) % (95% CI)
Best overall response: Complete response [11]: 3 (6.8) n (%)
Best overall response: Not assessed [11]: 7 (15.9) n (%)
Best overall response: Not evaluable [11]: 1 (2.3) n (%)
Best overall response: Partial response [11]: 7 (15.9) n (%)
Best overall response: Progressive disease [11]: 8 (18.2) n (%)
Best overall response: Stable disease [11]: 18 (40.9) n (%)
Clinical benefit rate [11]: 29.5 (16.76-45.20) % (95% CI)
Disease control rate [11]: 63.6 (47.77-77.59) % (95% CI)
Objective response rate [11]: 22.7 (11.47-37.84) % (95% CI)
Patients who died (efficacy-evaluable patients (N 95), n = 10): 10.5%
Patients who progressed (efficacy-evaluable patients (N 95), n = 50): 52.6%
Patients who died or progressed (efficacy-evaluable patients, 60/95): 63.2%
Confirmed complete responses [12]: 4.2%
Confirmed partial responses [12]: 20%
Confirmed ORR (overall efficacy-evaluable population (n=95), BID and QD): 24.2%
